In US20240385200A1, “COMPOSITIONS AND METHODS OF DETERMINING PH AND POTASSIUM CONCENTRATION IN SAMPLES” (The University of Chicago, priority 2023, published 2024):

Tested on: TGN-resident K^+ channels
Details: UT HEK 293T cells; TEA 10 mM, 10 min; resting ~102 mM
Procedure: EE and TGN pH and [K^+] measurements were carried out using pHlicKer^EE/TGN in HEK 293T cells transfected with hMSR1 and scFv-furin respectively. For EEs, HEK 293T cells were pulsed with 250 nM pHlicKer^EE for 10 min and chased for 10 min. For TGN, HEK 293T cells were pulsed with 250 nM pHlicKer^TGN for 90 min and chased for 90 min. Cells were washed with 1×PBS three times and then imaged. For recycling endosomes, HEK 293T cells were pulsed with 250 nM pHlicKer^RE for 15 min and chased for 30 min. Cells were washed with 1×PBS three times and then imaged using a widefield microscope.
Calculating pH-corrected [K^+] in early endosomes, trans-Golgi network, and recycling endosomes. To correct for pH and obtain K^+ values, the Kd of pHlicKer in single endosomes was calculated based on the Kd calibration plot versus pH. The pH of the organelle was measured from the D/A values calibrated across pH 5.5-7.0. Donor (D) and acceptor (A) images were background subtracted by drawing a region of interest outside the cells. The D image was duplicated, and a threshold was set to create a binary mask. Background-subtracted D and A images were then multiplied with the binary mask to get processed D and A images.

## CC[N+](CC)(CC)CC.[Cl-] [TEA, tetraethyl ammonium chloride]
  [K+]TGN: ~73 mM
